# In patent US20080299589A1, “Methods and Materials for Examining the P13k/Akt Pathway in Gliomas and Prostate Cancers” (The Regents of the University of California, priority 2003, published 2008):
# Entries after “also recorded” stand apart in the source; their conditions may differ.
# Columns and labels:
# [1] = tested on: LNCaP cells; experiment: Immunostaining of formalin fixed, paraffin embedded LNCaP cell pellets with phospho-specific antibodies after inhibitor treatment; format: cell-based; conditions: 18 hours, vs vehicle
# Protocol: (§1) Cells (LNCaP, DU 145, HT 129) were grown in culture (DMEM supplemented with 10% FBS, L-Glutamine, Penicillin and Streptomycin) and exposed to vehicle, the PI3K inhibitor LY294002 (30 μM), the mTOR inhibitor, CCI-779 (20 nM) for 18 hours or the MEK inhibitor, UO126 (20 μM) combined with 100 ng/ml of EGF for 20 minutes. Cell pellets were prepared, formalin fixed and embedded in paraffin, then cut for immunohistochemical staining with phospho-AKT, -S6, -FKHR and -ERK antibodies. We performed antigen retrieval with a 10 mM sodium citrate buffer (pH 6.0) for 30 minutes in a pressure cooker. Peroxidase activity was quenched with 3% hydrogen peroxide in water. Sections were stained overnight at 4° C. with monoclonal antibodies to PTEN at 1:300 (clone 6H2.1; Cascade Bioscience, Winchester, Mass. This antibody recognizes a 99 amino acid epitope at the C-terminus of PTEN) and polyclonal phosphorylation-specific antibodies to p-AKT (Set 473), p-FKHR which recognizes phosphorylated forms of the forkhead family of transcription factors FKHR (FOXO 1), FKHRL1 (FOXO 3a) and AFX (FOXO 4), p-S6 Ribosomal protein (Set 235/236), p-ERK (Thr-202/Tyr-204) at 1:100 (Cell Signaling Technology, Beverly, Mass.). This was followed by application of biotinylated secondary antibodies (Vector) at 1:1000 dilution for 30 minutes and Avidin-biotin complex (Elite ABC; Vector). Negative control slides received normal mouse serum (DAKO) as the primary antibody. Diaminobenzidine tetrahydrochloride (DAB) was used as the enzyme substrate to visualize specific antibody localization for PTEN and p-AKT; Vector NovaRed (Vector) for p-FKHR, p-S6 and p-ERK. Slides were counterstained with Harris hematoxylin. For immunofluorescence assays, post fixation in paraformaldehyde, the cells were probed with Total AKT (1:50) and p-AKT (1:250); the secondary antibodies Alexa Flour anti-rabbit and anti-mouse (1:1000) [Molecular Probes, Eugene, Oreg.]. Following incubation, images were captured on a Nikon fluorescence microscope and then overlaid using Adobe Photoshop software. […]
# [2] = tested on: PTEN deficient prostate cancer cell lines; conditions: PTEN deficient vs wild type prostate cancer cell lines; cited from earlier work
# [3] = tested on: PTEN deficient prostate cancer xenografts; conditions: PTEN deficient vs wild type prostate cancer xenografts; cited from earlier work
# [4] = tested on: HT129 cells; experiment: p-ERK staining in EGF-induced HT129 cells; format: cell-based
# Protocol: as §1, with “This was followed by application of biotinylated secondary antibodies (Vector) at 1:1000 dilution for 30 minutes and Avidin-biotin complex (Elite ABC; Vector). Negative control slides received normal mouse serum (DAKO) as the primary antibody. Diaminobenzidine tetrahydrochloride (DAB) was used as the enzyme substrate to visualize specific antibody localization for PTEN and p-AKT; Vector NovaRed (Vector) for p-FKHR, p-S6 and p-ERK. Slides were counterstained with Harris hematoxylin. For immunofluorescence assays, post fixation in paraformaldehyde, the cells were probed with Total AKT (1:50) and p-AKT (1:250); the secondary antibodies Alexa Flour anti-rabbit and anti-mouse (1:1000) [Molecular Probes, Eugene, Oreg.].” left out
# [5] = tested on: SKMG-3 cells; conditions: unstimulated SKMG-3 cells, minimal growth conditions; cited from earlier work
compound,measurement,setting,value
CO[C@H]1C[C@@H]2CC[C@@H](C)[C@@](O)(O2)C(=O)C(=O)N2CCCC[C@H]2C(=O)O[C@H]([C@H](C)C[C@@H]2CC[C@@H](OC(=O)C(C)(CO)CO)[C@H](OC)C2)CC(=O)[C@H](C)/C=C(\C)[C@@H](O)[C@@H](OC)C(=O)[C@H](C)C[C@H](C)/C=C/C=C/C=C/1C [CCI-779],staining intensity of p-AKT,[1]; CCI-779 20 nM,no effect
same,staining intensity of p-S6 (S6 phosphorylation),[1]; CCI-779 20 nM,downregulation of S6 phosphorylation; also recorded: decreased staining intensity
same,sensitivity to pharmacologic inhibition of mTOR compared to wild type counterparts,[2],more sensitive
same,sensitivity to pharmacologic inhibition of mTOR compared to wild type counterparts,[3],more sensitive
O=c1cc(N2CCOCC2)oc2c(-c3ccccc3)cccc12 [LY294002],staining intensity of p-ERK,[1]; LY294002 30 μM,no effect
same,p-ERK staining,"[4]; HT129 cells induced with EGF 100 ng/ml, LY294002",lack of inhibition
CNc1cc2c(Nc3cccc(Br)c3)ncnc2cn1 [PD158780],constitutive phosphorylation of Erk,[5],reduces the constitutive phosphorylation
same,constitutive phosphorylation of the receptor (EGFR),[5],reduces the constitutive phosphorylation
N#CC(=C(/N)Sc1ccccc1N)/C(C#N)=C(/N)Sc1ccccc1N [UO-126],p-ERK staining,"[4]; HT129 cells induced with EGF 100 ng/ml for 20 minutes, UO-126 20 μM for 20 minutes",decreased staining; also recorded: reduced
